What was measured:
stress ulcer = test: WIS: Restraint and Water Immersion Stress-Induced Ulcer Inhibition Test; assay type: in vivo, male Crj:SD or Slc:SD rats; settings: rat, 100 mg/kg oral, 7 h water immersion stress; read-out: ulcer formation inhibitory rate (WIS)
Experimental: WIS: Restraint and Water Immersion Stress-Induced Ulcer Inhibition Test
The degree of inhibition of the stress ulcer formation is tested.
Male Crj:SD or Slc:SD rats (6 to 7-week-old) were fasted overnight, but allowed free access to water. Each group has 5 to 8 of these rats. The sample compound was dissolved or suspended in an aqueous solution of 0.3% sodium carboxymethylcellulose or 0.05% Tween 80 and then was orally administered (100 mg/10 ml/kg. To a control group, the vehicle was administered. 10 minutes later, the rats were placed in a stress cage and immersed to the level of xipfoid process in a water bath (21° C.) for 7 hours. At the end of the stress, the rats were sacrificed by inhalation of ether or carbon dioxide. Then, the stomach of each was removed, inflated by injecting 10 ml of 5% formalin neutral buffer solution, and immersed in 1% formalin neutral buffer solution for 30 minutes or more to be fixed. The stomach was incised along the greater curvature and then the length of each erosion in the glandular portion was determined under dissecting microscope. The sum of the length of erosions per stomach was defined as ulcer index (UI).
The effect obtained when 100 mg/kg of the sample compound had been administered was expressed as ulcer formation inhibitory rate (%) as follows:
ulcer formation inhibitory rate (%)=(1-(UI in sample group/UI in control group))×100

[1] = tested on: isolated gastric fundic gland; test: CAP: Acid Secretion Inhibition Test In Vitro ([14C]-aminopyrine uptake test); assay type: cell-based, male Japanese White rabbit; settings: Oryctolagus cuniculus; final concentration 10^-5 M, histamine 10^-5 M; read-out: acid secretion inhibitory rate (CAP)
Experimental: CAP: Acid Secretion Inhibition Test In Vitro
The acid secretion inhibitory activity in a cell level is studied. It can also be used for studying the mechanism of the effect.
ii-a) Preparation of isolated gastric fundus gland suspension
First, an isolated gastric fundic gland sample was prepared. Namely, a male Japanese White rabbit (2.5 to 3 kg) was anesthetized to death with Nembutal™ and then the abdomen was incised. Immediately thereafter, the stomach was removed and, after its pyloric and cardiac antrum were severed, incised along its greater curvature into two sheets. The gastric contents adhering to the mucosal surface was washed out with ice-cooled PBS (-) and then carefully washed therein. The gastric wall was spread on a cork board with its mucosal surface facing up and the feed and mucus thereon were completely removed with sterile gauze. The mucosa was separated therefrom by a spatula and then collected in ice-cooled PBS (-). After being washed twice with PBS (-), the mucosa was minced into 2-3 mm^3 pieces by scissors. These pieces were further washed twice with a nutrient solution. The nutrient solution comprises 132.4 mM of NaCl, 5.4 mM of KCl, 5 mM of Na2 HPO4.12H2 O, 1 mM of NaH2 PO4.2H2,
1.2 mM of MgSO4, 1 mM of CaCl2, 25 mM of HEPES, 2 mg/ml of glucose, and 1 mg/ml of BSA.
Into 70 ml of the nutrient solution containing 1 mg/ml of collagenase, minced mucosal pieces were dispersed and intensely stirred in a conical flask with a stirrer at 37° C. for 40 to 60 minutes. During this period, 100% O2 was sprayed on the nutrient solution surface and the pH was appropriately measured such that it was immediately adjusted to pH 7.4, when the value was therebelow, with a base. The nutrient solution was added to the reaction solution so as to attain the total amount of about 200 ml. After being filtered through a mesh, the suspension was divisionally introduced into 50 ml centrifuge tubes and left for 15 minutes such that gastric fundic gland was deposited. The supernatant was repeatedly removed by an aspirator, dispersed in the nutrient solution, and then left such that the gastric fundic gland was washed three times. At this time, without using a pipette, the suspension was alternately introduced into two centrifuge tubes so as to effect dispersion. The number of cells was counted under microscope and adjusted to 1.6×10^6 cells/ml.
ii-b) [^14 C]-aminopyrine uptake test.
Then, [^14 C]-aminopyrine uptake test was performed. After an Eppendorf tube was weighed, 10 μl (final concentration: 10^-5 M) of histamine dissolved in the above-mentioned nutrient solution, 10 μl (final concentration: 10^-5 M) of the test compound dissolved in DMSO, and 10 μl (final concentration: 0.05 μCi/ml) of [^14 C]-aminopyrine diluted with the nutrient solution were introduced therein and then 970 μl of the isolated gastric fundic gland suspension prepared above was added thereto. Subsequently, this mixture was shaken at 37° C. for 40 minutes at 125 cycles/minute. After being centrifuged for 30 seconds, 200 μl of its supernatant was collected into a mini-vial, while the rest was removed by an aspirator. The gland pellet was completely dried as the tube with its lid being opened was kept for one night in a drying oven at 80° C. and then the lid was closed and the weight was determined at room temperature. Then 100 μl of 1N KOH was added thereto and the tube with its lid being closed was treated at 60° C. for 1 to 2 hours so as to dissolve the pellet. Then, the contents thereof were transferred to a mini-vial. Into the mini-vial containing the supernatant or gland pellet, 4 ml of Atomlite™ was added and then the radioactivity was measured by a liquid scintillation counter. Here, after the radioactivity of the gland pellet was corrected by using a sample in which 20 mM of NaSCN was added so as to cancel the hydrogen ion concentration gradient, the integration ratio of aminopyrine specifically trapped by the gland pellet was calculated. […]

[2] = MTT: Cell Damaging and Protecting Effect Test; assay type: cell-based, male Japanese White rabbit; settings: rabbit, gastric mucosa cells, final concentration 10^-4 M, smaller value is better, read-out: cell damaging rate (MTT)
Source text: MTT: Cell Damaging and Protecting Effect Test
It is confirmed that there is no toxicity in cell level. Those having a toxicity in cell level are inappropriate as an anti-ulcer drug.
A male Japanese White rabbit (2.5 to 3 kg) was anesthetized to death by Nembutal™ and, immediately thereafter, its stomach was removed. The greater curvature of the stomach was incised so as to remove the stomach contents therefrom. After the mucosal surface was washed with HBSS (Hanks' Balanced Salt Solution), the stomach in ice-cooled HBSS was transferred to a laboratory. Then, after the pyloric antrum was removed, the gastric corpus mucosa was separated by a spatula and then minced into 2 to 3 mm^3 pieces in BME (Basal Medium Eagle). Thereafer, these pieces were shaken at 120 to 130 cycles/minute for 15 minutes at 37° C. in BME 60 ml containing 280 U/ml of dispase and 30 to 50 U/ml of collagenase. Here, the concentration of collagenase was appropriately changed for each lot in view of the state of cells. The pieces were washed twice with EBSS (Earle's Balanced Salt Solution) containing 1 mM of EDTA and then shaken in MEM (Minimum Essential Medium) containing 1 mM of EDTA at 37° C. for 5 minutes. Subsequently, they were shaken in the dispase and collagenase having the same concentrations as those mentioned above for 15 minutes so as to remove the supernatant and then further shaken at 37° C. for 50 to 60 minutes at 120 to 130 cycles/minute. Then, after being washed twice with HBSS, Ham F12 containing 2% of Ultrocer G™ was used to attain the concentration of 1×10^6 cells/ml. Thus formed suspension was dispensed in each well of a 96-well plate by 200 μl. The plate was incubated in the atmosphere composed of 5% CO2 and 95% air at 37° C. for three days so as to attain a confluent state and then subjected to MTT assay.
The sample compound was dissolved in DMSO so as to attain a concentration of 10^-2 M and then diluted with HBSS containing 2% of Ultrocer G™ so as to attain a final concentration of 10^-4 M. To each group, which 8 wells were used for, 10 μl of MTT reagent was added immediately after 100 μl of the medium in each well was exchanged for same volume of the resulting solution of the sample compound. After being incubated in an atmosphere composed of 5% CO2 and 95% air at 37° C. for 4 hours, thus formed solution was centrifuged and then its supernatant was discarded. Subsequently, 100 μl of 100% ethanol was added to the residue so as to dissolve MTT formazan. Then, the absorbance (OD: 570 to 630) was measured by a microplate reader. This method utilizes a phenomenon in which MTT is changed to MTT formazan only by mitochondria of living cells so as to change color.
The cell damaging or cell protecting effect of the sample compound at the final concentration of 10^-4 M was expressed as cell damaging rate (%) as follows:
cell damaging rate (%)=(1-(absorbance in sample group/absorbance in control group))×100
Accordingly, the smaller value is better in the cell damaging rate.

| SMILES | inhibition in vivo at 100 mg/kg (stress ulcer) [%] | inhibition at 10 µM [1] [%] | cytotoxicity at 4 h, 100 µM [2] [%] |
| --- | --- | --- | --- |
| CCN1CCCC1CNC(=O)c1ccc(OC/C=C(\C)CCC=C(C)C)cc1 (stereo not shown) [Example 1, 1-ethyl-2-(4-geranyloxybenzoylaminomethyl)pyrrolidine] | 80 | – | – |
| CCN1CCCC1CNC(=O)c1ccccc1OC/C=C(\C)CCC=C(C)C (stereo not shown) [Example 2, 1-ethyl-2-(2-geranyloxybenzoylaminomethyl)pyrrolidine] | 85 | 99.7 | 19 |
| CCN1CCCC1CNC(=O)c1ccc(OCC=C(C)C)cc1 (stereo not shown) [Example 3, 1-ethyl-2-(4-prenyloxybenzoylaminomethyl)pyrrolidine] | 86 | 61 | -14 |
| CCN1CCCC1CNC(=O)c1ccc(OCC=C(C)C)cc1OCC=C(C)C (stereo not shown) [Example 5, 1-ethyl-2-(2,4-diprenyloxybenzoylaminomethyl)pyrrolidine] | 70 | 100 | 9 |
| CCN1CCCC1CNC(=O)c1ccc(OC/C=C(\C)CCC=C(C)C)cc1OC/C=C(\C)CCC=C(C)C (stereo not shown) [Example 9, 1-ethyl-2-(2,4-digeranyloxybenzoylaminomethyl)pyrrolidine] | 66 | – | – |
| CCN1CCCC1CNC(=O)c1ccc(OC/C=C(\C)CCC=C(C)C)c(OC/C=C(\C)CCC=C(C)C)c1 (stereo not shown) [Example 11, 1-ethyl-2-(3,4-digeranyloxybenzoylaminomethyl)pyrrolidine] | 75 | – | – |
| CCN1CCCC1CNC(=O)c1cc(OC/C=C(\C)CCC=C(C)C)cc(OC/C=C(\C)CCC=C(C)C)c1 (stereo not shown) [Example 12, 1-ethyl-2-(3,5-digeranyloxybenzoylaminomethyl)pyrrolidine] | 82 | 100 | 29 |
| CCN1CCCC1CNC(=O)c1cc(OCC=C(C)C)c(OCC=C(C)C)c(OCC=C(C)C)c1 (stereo not shown) [Example 13, 1-ethyl-2-(3,4,5-triprenyloxybenzoylaminomethyl)pyrrolidine] | 57 | – | – |
| CCN1CCCC1CNC(=O)c1ccc(OC)c(OC/C=C(\C)CCC=C(C)C)c1 (stereo not shown) [Example 15, 1-ethyl-2-(3-geranyloxy-4-methoxybenzoylaminomethyl)pyrrolidine] | 91 | – | 2 |
| CCN1CCCC1CNC(=O)c1ccc(OC)cc1OC/C=C(\C)CCC=C(C)C (stereo not shown) [Example 18, 1-ethyl-2-(2-geranyloxy-4-methoxybenzoylaminomethyl)pyrrolidine] | 76 | – | 4 |
| CCN1CCCC1CNC(=O)c1cc(OC)ccc1OC/C=C(\C)CCC=C(C)C (stereo not shown) [Example 19, 1-ethyl-2-(2-geranyloxy-5-methoxybenzoylaminomethyl)pyrrolidine] | 89 | – | 21 |
| CCN1CCCC1CNC(=O)c1cc(F)ccc1OC/C=C(\C)CCC=C(C)C (stereo not shown) [Example 20, 1-ethyl-2-(3-fluoro-6-geranyloxybenzoylaminomethyl)pyrrolidine] | 89 | – | 23 |
| CCN1CCCC1CNC(=O)c1cc(OC)c(OC/C=C(\C)CCC=C(C)C)c(OC)c1 (stereo not shown) [Example 21, 1-ethyl-2-(3,5-dimethoxy-4-geranyloxybenzoylaminomethyl)pyrrolidine] | 76 | – | – |
| CCN1CCCC1CNC(=O)c1cc(OC)c(OC)c(OC/C=C(\C)CCC=C(C)C)c1 (stereo not shown) [Example 22, 1-ethyl-2-(3,4-dimethoxy-5-geranyloxybenzoylaminomethyl)pyrrolidine] | 80 | – | – |
| CCN1CCCC1CNC(=O)c1cc(OC)c(OCC=C(C)C)c(OC)c1 (stereo not shown) [Example 24, 1-ethyl-2-(3,5-dimethoxy-4-prenyloxybenzoylaminomethyl)pyrrolidine] | 79 | – | 12 |
| CCN1CCCC1CNC(=O)c1cccnc1OCC=C(C)C (stereo not shown) [Example 25, 1-ethyl-2-(2-prenyloxynicotinoylaminomethyl)pyrrolidine] | 90 | – | -15 |
| CCN1CCCC1CNC(=O)c1ccc(OCC=C(C)C)nc1 (stereo not shown) [Example 26, 1-ethyl-2-(6-prenyloxynicotinoylaminomethyl)pyrrolidine] | 48 | – | -8 |
| CCN1CCCC1CNC(=O)c1ccc(OC/C=C(\C)CCC=C(C)C)nc1 (stereo not shown) [Example 27, 1-ethyl-2-(6-gearnyloxynicotinoylaminomethyl)pyrrolidine] | 88 | 81 | – |
